The values that follow come from US12606536B2, “Bioactive phenolate ionic complexes” (priority 2020, dated 2026).

Data set [1] in a line: Regeneration of thymol from thymol-salts in 0.1 N HCl. To be noted: 0.1N HCl solution (pH = 1), 30 min, heptane extraction. Type of data set: physicochemical. Here is the method:
Experimental procedure for regeneration studies: Regeneration studies were performed for 2-isopropyl-5-methylphenolate-salts in the 0.1 N HCl solution (1 pH) followed by extracting free thymol with heptane. The appropriate amount of the corresponding thymol-salt (Table 12) was brought into the 20 mL glass vial. To this, 10 mL of 0.1 N was added. The resultant mixture was kept in a shaker for 30 min. After 30 min of acid treatment, 10 mL of heptane was added to the reaction mixture. The collected organic layer was separated from the water layer and carefully dried using rotavapor followed by drying under a temperature-controlled hot oven at 35° C. for 12 h.

The conditions of data set [2]: PO 12 mg/kg semaglutide; for T0.5 of semaglutide: n = 3. Here is the method:
All compounds are powders and each material ratio is by mass.
Animals are anesthetized for the period of surgery. An indwelling cannula is placed in the right jugular vein of each animal for systemic blood sampling. The cannula is tunnelled beneath the skin and exteriorized at the dorsal part of the neck. After completion of the surgical procedure, the animals are transferred to individual cages to recover overnight (12-18 h). During said recovery period, food, but not water, is deprived if an oral absorption experiment is conducted. Throughout the experiments, free access to food is available 4 h post oral administration.
Animals are randomly assigned to the different experimental groups. […] Systemic blood samples (0.36 ml) are obtained by intravenous cannula, placed in the jugular vein. In the case of oral administration, samples are taken at 5 minutes pre-dose and at different time points post dose, according to the pharmacokinetic profile (blood will be drawn no more than 10% of rat blood volume). To prevent dehydration, equal volumes of physiological solution are administered to the rats following each blood sampling. Plasma is separated by centrifugation (4000 rpm, 7 minutes, 4 °C) and stored at −20° C. pending analysis. Plasma samples were analyzed by a developed LC-MS method for Semaglutide.
PK parameters were extracted from the data in a semi-logarithmic scale. […] It is further important to mention that the formulations were prepared by mass ratios.
AUC0-∞^# was calculated for infinity by using the terminal slope.

A short description of data set [3]: Reversibility of CBD salts to CBD on acidification. The settings on record: dilute HCl, pH 3; 1H NMR. In kind it is physicochemical. Here is the method:
1M HCl solution was added dropwise to aqueous solution of CBD-Na until pH of 3 was achieved. […] The ease of reversibility is paramount to the success of this work, as original compounds may be easily reconstituted by a simple chemical process.
For all salts, adding acidic solution such as HCl, convert back the native CBD.

Data set [4] can be described thus: Pharmacokinetics of CBD after IV administration, freely moving rats. In kind it is in vivo. Here is the method:
(§1) And dispersed in water to form a nano dispersion of about 30 nanometer. This dispersion was administered to rats by either IV or orally.
For IV administration: Each molecule was dissolved (2% w/w) in pro-nano lipospheres (PNL) formulation (Table 3). Double-distilled water (DDW) was added to a final CBD concentration of 0.2% w/w in the nano-suspension.
Pharmacokinetics (PK) in rats of Cannabidiol (CBD)-choline (Ch) salt following IV and oral administration: Pharmacokinetic study was performed using the freely moving rats model. For intravenously administration a dosage of 1 mg/kg was given (corrections for the salts are in Tables 4 and 5). Two groups were assigned randomly to be administered with either CBD (n=5) or Ch-CBD (n=4). Systemic blood samples (0.35 mL) were taken at 5-min pre-dose and at 5, 15 30 minutes and 1, 1.5, 2, 4, 6, and 8 hr. post dose.
(§2) The oral formulation was administered to the animals by oral gavage with a dosage of 15 mg/kg (corrections for the salts are in Tables 4 and 5). Two groups were assigned randomly to be administered with either CBD (n=5) or Ch-CBD (n=3). Systemic blood samples (0.35 mL) were taken at 5-min pre-dose and at 0.33, 0.66, 1, 1.5, 2, 4, 6, 8 and 10 hr. post dose. To prevent dehydration, equal volumes of physiological solution were administered following each withdrawal of blood sample. Plasma was separated by centrifugation (4000 rpm, 10 min) and stored at −20° C. pending analysis. Plasma aliquots of 150 μL were spiked with 10 μL of internal standard cannabigerol (CBG; 1 μg/mL). ACN (200 μL) was added to each test tube (tubes A) and vortex-mixed for 1 min. The extraction of CBD and CBG was performed by N-hexane (3 mL) that was added to each test tube (tubes A), followed by 1 min. vortex-mixing. After centrifugation at 4000 rpm for 10 min, the n-hexane organic layer was transferred to fresh glass test tubes (tubes B) and evaporated to dryness (Vacuum Evaporation System, Labconco, Kansas City, MO). Then, tubes B were reconstituted in 80 μL of ACN: water (80:20). The resulting solution (80 μl) was injected into the HPLC-MS system. Column used: XTerra MS C18 Column 3.5 μm 2.1×100 mm column (Waters®, Milford, MA). Mobile phase: an isocratic mobile phase of 20:80 (v/v) 2 mM ammonium acetate/acetonitrile. Diluent: 20:80 (v/v) water/acetonitrile. Flow rate: 0.2 mL/min. Column temperature: 35° C.±5° C. Sample Temperature: 20° C.±5° C. The detection masses (m/z): CBG—312.2 and CBD-313.2, with negative electrospray.
(§3) The amounts found in the plasma for the salts were adjusted with the 0.17 correction factor mentioned in Table 6, to resemble dosage of 1 mg/kg for IV administration and 15 mg/kg for oral administration.

For data set [5] the following is noted: octanol/water.
A short description of data set [6]: Pharmacokinetics of CBD after oral administration, freely moving rats. Type of data set: in vivo. Here is the method:
as §1
For oral administration: Each molecule was dissolved (5% w/w) in pro-nano lipospheres (PNL) formulation (Table 2). Double-distilled water (DDW) was added to a final CBD concentration of 0.5% w/w in the nano-suspension.
as §2, §3

The nature of data set [7]: HPLC analysis of regenerated CBD from CBD-Choline (1:1) at pH 1.0. In kind it is physicochemical. The settings on record: HCl solution pH = 1.0, 30 min, chloroform extraction.
Data set [8] is described as follows: Oxidation stability (air bubbled through and sun light, HPLC). In kind it is physicochemical. The settings on record: exposed to air bubbled through and sun light for 24 hours. Here is the method:
A solution of CBD in ethanol was exposed to air bubbled through and sun light. […] When the CBD metal complexes were exposed to air bubbled through oxidation and sun light for 24 hours, no change in CBD content is found, as determined by HPLC.

Data set [9] is described as follows: Water solubility of CBD metal complexes. Type of data set: physicochemical. Here is the method:
CBD metal complexes were tested for water solubility (Table 1).

For data set [10] the following is noted: NMR.
For the next data set, the system named is various viruses. To be noted: plants in polystyrene trays containing the salt; blank trays heavily infected.
A further data set has as its system mold. Nature of the data set: Hay bale packed in coated packaging. The settings on record: after 2 weeks; control bale became moldy. An excerpt:
The copper and zinc-thymol salts were incorporated in polystyrene foam, in a hydrogel during their manufacturing and in coating material of potato seeds and hay packaging material. Moreover, the thymol copper was incorporated in polyethylene sheets during melt extrusion. The salts were incorporated in these formulations while thymol could not be incorporated due to its evaporation rate and low melting point. Thymol was constantly released to air over a period of 3 weeks while protecting the hay from microbial contamination.
In a typical experiment, fresh hay was packed with thymol coated and copper-thymol salt coated packaging. After 2 weeks, the control bale became moldy.

≈ marks a conversion by molar mass, not a printed value. Counter-ions that a name gives are not always drawn.

From the text for various viruses: These trays were used for planting tomato plants contaminated with various viruses.

Take `Cc1ccc(C(C)C)c([O-])c1.[K+]` [Thymol salt Potassium, potassium 2-isopropyl-5-methylphenolate]: the “% of thymol regenerated” value in [1] was 57%.

`C[N+](C)(C)CCO.O=C([O-])CCCCCCCNC(=O)c1ccccc1[O-].[Na+]` [SNAC-CH] came in with a T0.5 of semaglutide in [2] of 2.62 ± 0.35 h.

For orientation: Log P means a log measure of how a compound divides between an organic and an aqueous phase. Read a high Log P as higher lipophilicity. With `C=C(C)C1CCC(C)=CC1c1c([O-])cc(CCCCC)cc1[O-].C[N+](C)(C)CCO.C[N+](C)(C)CCO` (stereo not shown) [CBD-Choline], the “Conversion back to CBD on acidification” value in data set [3] was “successfully regenerated”. In addition, the T0.5 in data set [4] (IV, MS correction (0.17), PNL, n = 4) came to 0.98 h; in [4] (IV, MW adjustment (0.6), PNL, n = 4), 1.07 h; in data set [6] (PO, MS correction (0.17), n = 3), 1.37 ± 0.47 h; in data set [6] (PO, MW adjustment (0.6), n = 3), 1.37 ± 0.47 h. For the same compound, the “Blood levels after IV compared with CBD” value in data set [4] (rats, IV) is given as “comparable”. Further, the “Log P” value in [5] was determined as 1.71.

What is called clearance is the rate of elimination divided by the concentration. High values mean efficient removal, low ones inefficient removal. As a reminder, the AUC(0-inf) is total exposure, with the tail of the curve extrapolated. What is called solubility is the dissolved amount per volume that the medium holds. The bioavailability is the share of a dose that reaches the circulation, judged against a reference dose that is usually intravenous. For orientation: Cmax means the highest concentration seen after dosing. With `C=C(C)[C@@H]1CCC(C)=C[C@H]1c1c(O)cc(CCCCC)cc1O` [CBD, cannabidiol], in data set [7], the “CBD regenerat. (%)” value is 100.00%. The T0.5 in data set [4] (IV 1 mg/kg in PNL, n = 5) turned out to be 1.45 h; in data set [6] (PO 15 mg/kg in PNL, n = 5), 1.05 ± 0.46 h. Besides, the clearance in data set [4] (rat, plasma, IV 1 mg/kg in PNL, n = 5) is 56.3 mL/min/kg. For the same compound, the Vd in [4] (rat, plasma, IV 1 mg/kg in PNL, n = 5, read-out: Volume of distribution) was 7.02 L/kg. Besides, the AUC(0-inf) in data set [4] (rat, CBD in plasma, IV 1 mg/kg in PNL formulation suspended (X10) in water, until 8 hours, n = 5) is 300 ng·h/mL; in data set [6] (rat, plasma, PO 15 mg/kg in PNL, calculated for infinity by the terminal slope, n = 5), 846 ± 321 ng·h/mL. Moreover, in data set [8], the “Change in CBD content” value is reported as “decrease in CBD content”. Moreover, the concentration in solution in data set [9] (water) (solubility) was 12.6 µg/mL (≈ 40.1 µM). Moreover, the bioavailability in data set [6] (rat, plasma, PO 15 mg/kg in PNL, calculated using data of CBD in PNL by IV administration, read-out: Fabs (%) (Absolute bioavailability)) is 18.8 ± 7.1%. In addition, the peak concentration (Cmax) in data set [6] (rat, plasma, PO 15 mg/kg in PNL, n = 5) was determined as 200 ± 79.5 ng/mL. Also, the AUC(0-t) in [6] (rat, CBD in plasma, PO 15 mg/kg in PNL formulation suspended (X10) in water, until 10 hours, n = 5, read-out: AUC0-10) came to 841 ± 319 ng·h/mL.

Take `O=C([O-])CCCCCCCNC(=O)c1ccccc1O.[Na+]` [SNAC-Na]: in data set [2], the “Semaglutide absorption compared with the SNAC formulation” value is “didn't contribute to the semaglutide absorption”.

Turning to `Cc1ccc(C(C)C)c([O-])c1.[Li+]` [Thymol salt Lithium, lithium 2-isopropyl-5-methylphenolate], in data set [1], the “% of thymol regenerated” value was determined as 63%.

In [9], `C=C(C)C1CCC(C)=CC1c1c([O-])cc(CCCCC)cc1[O-].[K+].[K+]` (stereo not shown) [CBD-K] came in with a Solubility in water of 2 mg/mL.

In the case of `Cc1ccc(C(C)C)c(O)c1` [Thymol salt Silver, silver 2-isopropyl-5-methylphenolate], the “% of thymol regenerated” value in [1] (listed as Silver) worked out at 57%.

For the compound `Cc1ccc(C(C)C)c(O)c1` [Thymol salt Ferrous (II), ferrous (II) 2-isopropyl-5-methylphenolate], the “% of thymol regenerated” value in data set [1] is 97%.

As to “2Na(2-isopropyl-5-methylphenolate)4Zn [Thymol salt 2Na4Zn]”, the “% of thymol regenerated” value in data set [1] is 74%.

For the compound `Cc1ccc(C(C)C)c([O-])c1.[Na+]` [Thymol salt Sodium, sodium 2-isopropyl-5-methylphenolate], in data set [1], the “% of thymol regenerated” value came out at 68%.

As for `Cc1ccc(C(C)C)c(O)c1` [Thymol salt Zinc (II), zinc(II) 2-isopropyl-5-methylphenolate], the “% of thymol regenerated” value in data set [1] (listed as Zinc (II)) amounted to 59%.

Consider “manganese (II) 2-isopropyl-5-methylphenolate [Thymol salt Manganese(II)]”, for which, in [1], the “% of thymol regenerated” value stood at 77%.

For `C=C(C)C1CCC(C)=CC1c1c(O)cc(CCCCC)cc1O` (stereo not shown) [CBD-Choline (1:1) salt], the “CBD regenerat. (%)” value is listed as 67.01% in data set [7] and “about 67.0%” in [7] (listed as CBD-Choline (1:1)).

In data set [2], `O=C([O-])CCCCCCCNC(=O)c1ccccc1[O-].[Na+].[Na+]` [SNAC-Na] returned a T0.5 of semaglutide of 2.26 ± 1.07 h.

For `CCCC[N+](CCCC)(CCCC)CCCC` [Thymol salt Tetrabutylammonium, tetrabutylammonium 2-isopropyl-5-methylphenolate], the “% of thymol regenerated” value in data set [1] worked out at 94%.

With `O=C([O-])CCCCCCCNC(=O)c1ccccc1O.[Na+]` [SNAC, Salcaprozate Sodium], in data set [10], the “Behaviour on reducing the pH to acidic pH (1.2)” value was “precipitated”.

Turning to `O=C([O-])c1ccccc1.O=C([O-])c1ccccc1.[Cu+2]` [copper benzoate], the “Infection of tomato plants” value in the data set on various viruses is listed as “did not demonstrate any infection”.

Regarding `C=C(C)C1CCC(C)=CC1c1c([O-])cc(CCCCC)cc1[O-].[Na+].[Na+]` (stereo not shown) [CBD-Na], the “Conversion back to CBD on acidification” value in data set [3] is “confirmed by ^1H NMR to be CBD”. Besides, the Solubility in water in [9] is reported as 10 mg/mL.

For `Cc1ccc(C(C)C)c(O)c1` [Thymol salt Copper (II), copper(II) 2-isopropyl-5-methylphenolate], the “Mold on hay bale” value in the data set on mold is given as “has not shown any mold”. In addition, in data set [1] (listed as Copper (II)), the “% of thymol regenerated” value is given as 72%.
